For the test, the system named is A549 cells. The test can be described thus: Cell proliferation assay (CellTiter-Glo), cells with K-Ras G12S mutation. It is filed as cell-based. As to conditions: Homo sapiens, ≤500 nM, read-out: Inhibition of A549 Cells (IC50). In outline:
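A549 (K-Ras G12S) cells in RPMI-1640 with 10% heat-inactivated FBS, plated in standard or ultra-low-attachment 384-well format, treated next day with a dilution series (e.g., 10-point, 3-fold). Viability read by CellTiter-Glo luminescence about 6 days later; IC50 from four-parameter fit.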
In general terms: In ATP-based viability assays light output follows the ATP content of the culture.

Each structure is given as a SMILES string. A value given as a limit tells only on which side of the number the result lay.

In the case of `CC(C)N(C(=O)n1cncn1)[C@H]1CCN(c2nc(OC[C@@]34CCCN3C[C@H](F)C4)nc3c(F)c(-c4ccc(F)c5sc(N)c(C#N)c45)c(Cl)cc23)C1` [Compound 180, N-((3S)-1-(7-(2-amino-3-cyano-7-fluorobenzo[b]thiophen-4-yl)-6-chloro-8-fluoro-2-(((2R,7aS)-2-fluorotetrahydro-1H-pyrrolizin-7a(5H)-yl)methoxy)quinazolin-4-yl)pyrrolidin-3-yl)-N-isopropyl-1H-1,2,4-triazole-1-carboxamide], the IC50 (in general, the concentration that gives 50% inhibition) was ≤ 500 nM.
In the case of `CC1N(C(=O)n2cncn2)CC12CCCN(c1nc(OC[C@@]34CCCN3C[C@H](F)C4)nc3c(F)c(-c4ccc(F)c5sc(N)c(C#N)c45)c(Cl)cc13)C2` (stereo partly drawn) [Compound 182, 2-amino-4-(6-chloro-8-fluoro-2-(((2R,7aS)-2-fluorotetrahydro-1H-pyrrolizin-7a(5H)-yl)methoxy)-4-(1-methyl-2-(1H-1,2,4-triazole-1-carbonyl)-2,6-diazaspiro[3.5]nonan-6-yl)quinazolin-7-yl)-7-fluorobenzo[b]thiophene-3-carbonitrile] it was ≤ 500 nM; in that of `CC(C)[C@H]1N(C(=O)n2cnc(F)n2)C[C@]12CCCN(c1nc(OC[C@@]34CCCN3C[C@H](F)C4)nc3c(F)c(-c4ccc(F)c5sc(N)c(C#N)c45)c(Cl)cc13)C2` [Compound 184, 2-amino-4-(6-chloro-8-fluoro-4-((1R,4R)-2-(3-fluoro-1H-1,2,4-triazole-1-carbonyl)-1-isopropyl-2,6-diazaspiro[3.5]nonan-6-yl)-2-(((2R,7aS)-2-fluorotetrahydro-1H-pyrrolizin-7a(5H)-yl)methoxy)quinazolin-7-yl)-7-fluorobenzo[b]thiophene-3-carbonitrile], ≤ 500 nM; in that of `C[C@H]1CC[C@]2(CN(C(=O)n3cnc(F)n3)[C@@H]2C2(C)CC2)CN1c1nc(OC[C@@]23CCCN2C[C@H](F)C3)nc2c(F)c(-c3ccc(F)c4sc(N)c(C#N)c34)c(Cl)cc12` [Compound 185, 2-amino-4-(6-chloro-8-fluoro-4-((1R,4R,7S)-2-(3-fluoro-1H-1,2,4-triazole-1-carbonyl)-7-methyl-1-(1-methylcyclopropyl)-2,6-diazaspiro[3.5]nonan-6-yl)-2-(((2R,7aS)-2-fluorotetrahydro-1H-pyrrolizin-7a(5H)-yl)methoxy)quinazolin-7-yl)-7-fluorobenzo[b]thiophene-3-carbonitrile], ≤ 500 nM.
With `CN(C[C@@H]1CN(C(=O)n2cnc(F)n2)[C@@H]1C1(C(F)F)CC1)c1nc(OC[C@@]23CCCN2C[C@H](F)C3)nc2c(F)c(-c3ccc(F)c4sc(N)c(C#N)c34)c(Cl)cc12` [Compound 186, 2-amino-4-(6-chloro-4-((((2S,3R)-2-(1-(difluoromethyl)cyclopropyl)-1-(3-fluoro-1H-1,2,4-triazole-1-carbonyl)azetidin-3-yl)methyl)(methyl)amino)-8-fluoro-2-(((2R,7aS)-2-fluorotetrahydro-1H-pyrrolizin-7a(5H)-yl)methoxy)quinazolin-7-yl)-7-fluorobenzo[b]thiophene-3-carbonitrile], the IC50 is ≤ 500 nM.
Then `CC(C)[C@H]1N(C(=O)n2cnc(Cl)n2)C[C@]12CCCN(c1nc(OC[C@@]34CCCN3C[C@H](F)C4)nc3c(F)c(-c4ccc(F)c5sc(N)c(C#N)c45)c(Cl)cc13)C2` [Compound 190, 2-amino-4-(6-chloro-4-((1R,4R)-2-(3-chloro-1H-1,2,4-triazole-1-carbonyl)-1-isopropyl-2,6-diazaspiro[3.5]nonan-6-yl)-8-fluoro-2-(((2R,7aS)-2-fluorotetrahydro-1H-pyrrolizin-7a(5H)-yl)methoxy)quinazolin-7-yl)-7-fluorobenzo[b]thiophene-3-carbonitrile], with ≤ 500 nM; and `CC(C)[C@H]1N(C(=O)n2cnc(Cl)n2)C[C@]12CC[C@H](C)N(c1nc(OC[C@@]34CCCN3C[C@H](F)C4)nc3c(F)c(-c4ccc(F)c5sc(N)c(C#N)c45)c(Cl)cc13)C2` [Compound 192, 2-amino-4-(6-chloro-4-((1R,4R,7S)-2-(3-chloro-1H-1,2,4-triazole-1-carbonyl)-1-isopropyl-7-methyl-2,6-diazaspiro[3.5]nonan-6-yl)-8-fluoro-2-(((2R,7aS)-2-fluorotetrahydro-1H-pyrrolizin-7a(5H)-yl)methoxy)quinazolin-7-yl)-7-fluorobenzo[b]thiophene-3-carbonitrile], with ≤ 500 nM.
Then `C[C@H]1CC[C@]2(CN(C(=O)n3cnc(F)n3)[C@@H]2C2CCC2)CN1c1nc(OC[C@@]23CCCN2C[C@H](F)C3)nc2c(F)c(-c3ccc(F)c4sc(N)c(C#N)c34)c(Cl)cc12` [Compound 199, 2-amino-4-(6-chloro-4-((1R,4R,7S)-1-cyclobutyl-2-(3-fluoro-1H-1,2,4-triazole-1-carbonyl)-7-methyl-2,6-diazaspiro[3.5]nonan-6-yl)-8-fluoro-2-(((2R,7aS)-2-fluorotetrahydro-1H-pyrrolizin-7a(5H)-yl)methoxy)quinazolin-7-yl)-7-fluorobenzo[b]thiophene-3-carbonitrile], with ≤ 500 nM; and `CC(C)[C@H]1N(C(=O)n2cnc(F)n2)C[C@@]12CN(c1nc(OC[C@@]34CCCN3C[C@H](F)C4)nc3c(F)c(-c4ccc(F)c5sc(N)c(C#N)c45)c(Cl)cc13)CCO2` [Compound 204, 2-amino-4-(6-chloro-8-fluoro-4-((1R,4S)-2-(3-fluoro-1H-1,2,4-triazole-1-carbonyl)-1-isopropyl-5-oxa-2,8-diazaspiro[3.5]nonan-8-yl)-2-(((2R,7aS)-2-fluorotetrahydro-1H-pyrrolizin-7a(5H)-yl)methoxy)quinazolin-7-yl)-7-fluorobenzo[b]thiophene-3-carbonitrile], with ≤ 500 nM.
In the case of `CC1CN(c2nc(OC[C@@]34CCCN3C[C@H](F)C4)nc3c(F)c(-c4ccc(F)c5sc(N)c(C#N)c45)c(Cl)cc23)CC1N(C)C(=O)n1cncn1` (stereo partly drawn) [Compound 206, N-(1-(7-(2-amino-3-cyano-7-fluorobenzo[b]thiophen-4-yl)-6-chloro-8-fluoro-2-(((2R,7aS)-2-fluorotetrahydro-1H-pyrrolizin-7a(5H)-yl)methoxy)quinazolin-4-yl)-4-methylpyrrolidin-3-yl)-N-methyl-1H-1,2,4 triazole-1-carboxamide] it was ≤ 500 nM; in that of `CC(C)[C@@H]1[C@H](CN(C)c2nc(OC[C@@]34CCCN3C[C@H](F)C4)nc3c(F)c(-c4ccc(F)c5sc(N)c(C#N)c45)c(Cl)cc23)CN1C(=O)n1cnc(Cl)n1` [Compound 208, 2-amino-4-(6-chloro-4-((((2R,3R)-1-(3-chloro-1H-1,2,4-triazole-1-carbonyl)-2-isopropylazetidin-3-yl)methyl)(methyl)amino)-8-fluoro-2-(((2R,7aS)-2-fluorotetrahydro-1H-pyrrolizin-7a(5H)-yl)methoxy)quinazolin-7-yl)-7-fluorobenzo[b]thiophene-3-carbonitrile], ≤ 500 nM; in that of `CCN(C(=O)n1cncn1)C1CCCN(c2nc(OC[C@@]34CCCN3C[C@H](F)C4)nc3c(F)c(-c4ccc(F)c5sc(N)c(C#N)c45)c(Cl)cc23)C1` (stereo partly drawn) [Compound 209, N-(1-(7-(2-amino-3-cyano-7-fluorobenzo[b]thiophen-4-yl)-6-chloro-8-fluoro-2-(((2R,7aS)-2-fluorotetrahydro-1H-pyrrolizin-7a(5H)-yl)methoxy)quinazolin-4-yl)piperidin-3-yl)-N-ethyl-1H-1,2,4-triazole-1-carboxamide], ≤ 500 nM.
On to `CC(C)[C@H]1N(C(=O)n2cnc(Cl)n2)C[C@@]1(C)CN(C)c1nc(OC[C@@]23CCCN2C[C@H](F)C3)nc2c(F)c(-c3ccc(F)c4sc(N)c(C#N)c34)c(Cl)cc12` [Compound 210, 2-amino-4-(6-chloro-4-((((2R,3R)-1-(3-chloro-1H-1,2,4-triazole-1-carbonyl)-2-isopropyl-3-methylazetidin-3-yl)methyl)(methyl)amino)-8-fluoro-2-(((2R,7aS)-2-fluorotetrahydro-1H-pyrrolizin-7a(5H)-yl)methoxy)quinazolin-7-yl)-7-fluorobenzo[b]thiophene-3-carbonitrile], for which the IC50 was ≤ 500 nM.
As to `CC(C)[C@H]1N(C(=O)n2cnc(F)n2)C[C@]12CC[C@H](C)N(c1nc(OC[C@@]34CCCN3C[C@H](F)C4)nc3c(F)c(-c4ccc(F)c5sc(N)c(C#N)c45)c(Cl)cc13)C2` [Compound 213, 2-amino-4-(6-chloro-8-fluoro-4-((1R,4R,7S)-2-(3-fluoro-1H-1,2,4-triazole-1-carbonyl)-1-isopropyl-7-methyl-2,6-diazaspiro[3.5]nonan-6-yl)-2-(((2R,7aS)-2-fluorotetrahydro-1H-pyrrolizin-7a(5H)-yl)methoxy)quinazolin-7-yl)-7-fluorobenzo[b]thiophene-3-carbonitrile], the IC50 was ≤ 500 nM.
In the case of `CC1([C@H]2N(C(=O)n3cnc(F)n3)C[C@]23CCCN(c2nc(OC[C@@]45CCCN4C[C@H](F)C5)nc4c(F)c(-c5ccc(F)c6sc(N)c(C#N)c56)c(Cl)cc24)C3)CC1` [Compound 216, 2-amino-4-(6-chloro-8-fluoro-4-((1R,4R)-2-(3-fluoro-1H-1,2,4-triazole-1-carbonyl)-1-(1-methylcyclopropyl)-2,6-diazaspiro[3.5]nonan-6-yl)-2-(((2R,7aS)-2-fluorotetrahydro-1H-pyrrolizin-7a(5H)-yl)methoxy)quinazolin-7-yl)-7-fluorobenzo[b]thiophene-3-carbonitrile] it was ≤ 500 nM; in that of `COCC1([C@H]2N(C(=O)n3cnc(F)n3)C[C@]23CCCCN(c2nc(OC[C@@]45CCCN4C[C@H](F)C5)nc4c(F)c(-c5ccc(F)c6sc(N)c(C#N)c56)c(Cl)cc24)C3)CC1` [Compound 219, 2-amino-4-(6-chloro-8-fluoro-4-((1S,4R)-2-(3-fluoro-1H-1,2,4-triazole-1-carbonyl)-1-(1-(methoxymethyl)cyclopropyl)-2,6-diazaspiro[3.6]decan-6-yl)-2-(((2R,7aS)-2-fluorotetrahydro-1H-pyrrolizin-7a(5H)-yl)methoxy)quinazolin-7-yl)-7-fluorobenzo[b]thiophene-3-carbonitrile], ≤ 500 nM.
